From patent US12581252B2, “Substituted pyrrolo[3,4-b]pyridines as PI3K-α inhibitors” (Relay Therapeutics, Inc., priority 2020, dated 2026)

Target: H1047R PIK3CA enzyme (Homo sapiens, UniProt P42336, H1047R)
Test: ADP-Glo Biochemical PIK3CA Kinase Assay

Chain of H1047R PIK3CA enzyme (P42336 whole entry H1047R): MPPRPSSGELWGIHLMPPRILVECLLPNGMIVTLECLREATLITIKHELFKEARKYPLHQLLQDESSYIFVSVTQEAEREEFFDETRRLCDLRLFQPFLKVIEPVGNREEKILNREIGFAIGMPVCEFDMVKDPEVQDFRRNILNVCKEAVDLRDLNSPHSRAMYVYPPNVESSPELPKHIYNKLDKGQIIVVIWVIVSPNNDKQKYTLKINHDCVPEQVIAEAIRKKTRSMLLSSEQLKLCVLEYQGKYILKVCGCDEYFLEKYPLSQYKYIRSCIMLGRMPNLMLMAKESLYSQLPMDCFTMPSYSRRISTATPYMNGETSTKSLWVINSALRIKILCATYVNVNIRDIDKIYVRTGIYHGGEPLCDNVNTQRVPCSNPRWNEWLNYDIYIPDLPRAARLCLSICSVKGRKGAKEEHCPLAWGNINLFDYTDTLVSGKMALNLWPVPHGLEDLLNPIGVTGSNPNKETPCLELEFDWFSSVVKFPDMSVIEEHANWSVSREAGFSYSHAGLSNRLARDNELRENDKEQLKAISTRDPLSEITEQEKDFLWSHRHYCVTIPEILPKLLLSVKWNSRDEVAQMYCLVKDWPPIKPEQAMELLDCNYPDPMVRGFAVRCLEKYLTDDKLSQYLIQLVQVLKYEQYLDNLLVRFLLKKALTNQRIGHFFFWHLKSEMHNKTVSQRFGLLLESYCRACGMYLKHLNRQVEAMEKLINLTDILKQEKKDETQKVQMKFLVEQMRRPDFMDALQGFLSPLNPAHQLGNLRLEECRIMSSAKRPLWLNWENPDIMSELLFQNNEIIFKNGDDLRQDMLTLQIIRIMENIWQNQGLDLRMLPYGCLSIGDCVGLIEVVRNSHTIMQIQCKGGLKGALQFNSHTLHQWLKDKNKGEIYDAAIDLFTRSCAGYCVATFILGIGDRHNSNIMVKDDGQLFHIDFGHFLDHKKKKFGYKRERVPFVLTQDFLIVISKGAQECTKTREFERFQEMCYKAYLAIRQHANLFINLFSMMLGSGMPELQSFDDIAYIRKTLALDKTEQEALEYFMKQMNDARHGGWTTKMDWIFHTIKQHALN
Chain of H1047R PIK3CA enzyme (P27986 whole entry partner): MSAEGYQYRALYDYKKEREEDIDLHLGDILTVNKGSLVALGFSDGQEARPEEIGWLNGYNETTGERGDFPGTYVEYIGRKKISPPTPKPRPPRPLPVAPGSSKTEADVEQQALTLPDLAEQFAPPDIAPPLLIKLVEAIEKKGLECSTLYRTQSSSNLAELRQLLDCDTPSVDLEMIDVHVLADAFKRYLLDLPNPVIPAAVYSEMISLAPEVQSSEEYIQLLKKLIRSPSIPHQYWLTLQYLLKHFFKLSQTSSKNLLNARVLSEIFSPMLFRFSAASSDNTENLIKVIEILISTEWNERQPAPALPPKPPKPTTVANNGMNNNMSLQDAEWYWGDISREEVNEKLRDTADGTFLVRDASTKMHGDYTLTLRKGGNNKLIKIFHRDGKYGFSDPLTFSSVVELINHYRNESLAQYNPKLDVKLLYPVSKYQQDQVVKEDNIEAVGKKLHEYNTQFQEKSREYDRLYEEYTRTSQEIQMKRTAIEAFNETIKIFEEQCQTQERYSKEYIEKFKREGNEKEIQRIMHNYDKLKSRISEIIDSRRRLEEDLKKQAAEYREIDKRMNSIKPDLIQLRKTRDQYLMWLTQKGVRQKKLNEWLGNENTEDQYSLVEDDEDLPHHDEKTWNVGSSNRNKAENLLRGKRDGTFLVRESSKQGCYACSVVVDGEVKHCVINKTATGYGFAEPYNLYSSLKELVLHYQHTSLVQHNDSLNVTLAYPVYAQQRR

SMILES | IC50
O=C(Nc1cc(Br)cc2c1[C@@H](c1c(F)cccc1Cl)NC2=O)c1cc(F)cc(C(F)(F)F)c1 [Compound I-679] | 1000 to 10000 nM
C[C@@H](C#N)Oc1cc(NC(=O)c2cc(F)cc(C(F)(F)F)c2)c2c(c1)C(=O)N[C@@H]2c1cc(F)ccc1Cl (single isomer, unassigned) [Compound I-2007] | 1000 to 10000 nM
O=C(Nc1cc(Cc2ccc3c(c2)CCNC3=O)cc2c1[C@@H](c1cc(F)ccc1Cl)NC2=O)c1cc(F)cc(C(F)(F)F)c1 [Compound I-1625] | 500 to 1000 nM
Cn1cncc1-c1cc(NC(=O)c2cc(F)cc(C(F)(F)F)c2)c2c(c1)C(=O)NC2c1cc(F)ccc1Cl (centres unmarked) [Compound I-1272] | ≤ 100 nM
O=C(Nc1cc(-n2cc(F)cn2)nc2c1C(c1cc(F)ccc1Cl)NC2=O)c1cc(F)cc(C(F)(F)F)c1 (centres unmarked) [Compound I-354] | 100 to 500 nM
O=C1NC(c2cc(F)ccc2Cl)c2c(NC(=O)N3CCCC34CCCCC4)cccc21 (centres unmarked) [Compound I-2430] | 500 to 1000 nM
O=C1NC(c2cc(F)ccc2Cl)c2c(CS(=O)(=O)c3ccccc3)cc(-c3ccc4ncnn4c3)cc21 (centres unmarked) [Compound I-1728] | 10000 to 100000 nM
O=C1NC(c2cc(F)ccc2Cl)c2c(NC(=O)N3CCCC3C3CC3)cccc21 (centres unmarked) [Compound I-2408] | 10000 to 100000 nM
Cc1ccccc1-n1[nH]c(=O)c2cccc(NC(=O)c3nsc4ccccc34)c21 [Compound I-117] | 1000 to 10000 nM
CNc1cc(NC(=O)N2C[C@@](O)(C(F)(F)F)c3cc(F)ccc32)c2c(n1)C(=O)N[C@H]2c1cc(F)ccc1Cl (single isomer, unassigned) [Compound I-2646] | 500 to 1000 nM
O=C1N[C@H](c2cc(F)ccc2Cl)c2c(NC(=O)N3C[C@@H](O)c4cc(F)ccc43)cc(-n3nccn3)cc21 (single isomer, unassigned) [Compound I-2345] | 1000 to 10000 nM
O=C1NC(c2cc(F)ccc2Cl)c2c(NC(=O)C3(C(F)(F)F)CC3)cc(Br)cc21 (centres unmarked) [Compound I-1204] | 10000 to 100000 nM
O=C(Nc1cccc2c1[C@H](C1CCC(F)(F)CC1)NC2=O)c1cc(F)cc(C(F)(F)F)c1 [Compound I-2073] | 10000 to 100000 nM
O=C(Nc1cc(C2CCCO2)cc2c1C(c1cc(F)ccc1Cl)NC2=O)c1cc(F)cc(C(F)(F)F)c1 (centres unmarked) [Compound I-364] | ≤ 100 nM
N#CCc1cc(NC(=O)N2C[C@@](O)(C(F)F)c3cc(F)ccc32)c2c(c1)C(=O)N[C@@H]2c1cc(F)ccc1Cl (single isomer, unassigned) [Compound I-2600] | 500 to 1000 nM
C[S@](=O)(Cc1cc(NC(=O)c2cc(F)cc(C(F)(F)F)c2)c2c(c1)C(=O)N[C@@H]2c1cc(F)ccc1Cl)=NC#N (single isomer, unassigned) [Compound I-1561] | 100 to 500 nM
Cc1ccccc1C1NC(=O)c2c(C(=O)N3CC(C#N)C3)ccc(NC(=O)c3nsc4ccccc34)c21 (centres unmarked) [Compound I-219] | 500 to 1000 nM
NCCc1cc(NC(=O)N2C[C@H](O)c3cc(F)ccc32)c2c(c1)C(=O)N[C@H]2c1cc(F)ccc1Cl (single isomer, unassigned) [Compound I-2445] | 1000 to 10000 nM
O=C(Nc1cc(N2CCCC(F)(F)C2)nc2c1C(c1cc(F)ccc1Cl)NC2=O)c1cc(F)cc(C(F)(F)F)c1 (centres unmarked) [Compound I-538] | ≤ 100 nM
N#Cc1cccc([S+]([O-])Cc2cc(NC(=O)c3cc(F)cc(C(F)(F)F)c3)c3c(c2)C(=O)NC3c2cc(F)ccc2Cl)c1 (centres unmarked) [Compound I-1487] | ≤ 100 nM
O=C(Nc1cc(-c2ccnc(C(F)F)c2)cc2c1[C@H](c1cc(F)ccc1Cl)NC2=O)c1cc(F)cc(C(F)(F)F)c1 [Compound I-2003] | ≤ 100 nM
Cn1cc(-c2cc(NC(=O)c3cc(F)cc(Cl)c3)c3c(n2)C(=O)N[C@H]3c2cc(F)ccc2Cl)cn1 [Compound I-386] | ≤ 100 nM

SMILES | IC50
N#Cc1cc(NC(=O)c2cc(F)cc(C(F)(F)F)c2)c2c(c1)C(=O)N[C@H]2c1cc(F)ccc1Cl (single isomer, unassigned) [Compound I-771] | ≤ 100 nM
CC(=O)Cc1cc(NC(=O)c2cc(F)cc(C(F)(F)F)c2)c2c(c1)C(=O)NC2c1cc(F)ccc1C(F)F (centres unmarked) [Compound I-620] | ≤ 100 nM
O=C(Nc1cccc2c1C(C1CCCCC1)NC2=O)c1cc(F)cc(C(F)(F)F)c1 (centres unmarked) [Compound I-1611] | 1000 to 10000 nM
O=C1N[C@@H](c2cc(F)ccc2Cl)c2c(N[C@@H]3CCOc4ccccc43)cc(-c3cnn(C(F)F)c3)nc21 [Compound I-2081] | 1000 to 10000 nM
O=C(Nc1cnc(-c2cn[nH]c2)c2c1C(c1cc(F)ccc1Cl)NC2=O)c1cc(F)cc(C(F)(F)F)c1 (centres unmarked) [Compound I-287] | 100 to 500 nM
CNc1cc(NC(=O)N2C[C@@](O)(C(F)(F)F)c3cc(F)ccc32)c2c(c1)C(=O)N[C@H]2c1cc(F)ccc1Cl (single isomer, unassigned) [Compound I-2642] | 100 to 500 nM
O=C1N[C@@H](c2cc(F)ccc2Cl)c2c(NC(=O)[C@@H]3CCC[C@@H](OC(F)(F)F)C3)cccc21 (single isomer, unassigned) [Compound I-2216] | 10000 to 100000 nM
CN1CC(C2NC(=O)c3cccc(NC(=O)c4cc(F)cc(C(F)(F)F)c4)c32)C1 (racemic) [Compound I-1832] | 10000 to 100000 nM
O=C1N[C@@H](c2cc(F)ccc2Cl)c2c(NC(=O)N3C[C@H](CO)[C@@H](C(F)(F)F)C3)cccc21 (single isomer, unassigned) [Compound I-2279] | 10000 to 100000 nM
O=C1NC(c2cc(F)ccc2Cl)c2c(NC(=O)C3CCCCO3)cc(-c3ccc4ncnn4c3)cc21 (centres unmarked) [Compound I-1803] | 10000 to 100000 nM
O=C1NC(c2cc(F)ccc2Cl)c2c(NS(=O)(=O)c3cc(F)cc(C(F)(F)F)c3)cc(Br)cc21 (centres unmarked) [Compound I-1352] | 10000 to 100000 nM
O=C(Nc1cc(N2CCc3ncccc32)cc2c1C(c1cc(F)ccc1Cl)NC2=O)c1cc(F)cc(C(F)(F)F)c1 (centres unmarked) [Compound I-1260] | ≤ 100 nM
CC(C)(O)Cc1cc(NC(=O)c2cc(F)cc(Cl)c2)c2c(c1)C(=O)NC2c1cc(F)ccc1Cl (centres unmarked) [Compound I-645] | ≤ 100 nM
CN1C(=O)CCC1COc1cc(NC(=O)c2cc(F)cc(C(F)(F)F)c2)c2c(c1)C(=O)NC2c1cc(F)ccc1Cl (racemic) [Compound I-1347] | ≤ 100 nM
N#Cc1cnccc1-c1cc(NC(=O)c2cc(F)cc(C(F)(F)F)c2)c2c(c1)C(=O)N[C@@H]2c1cc(F)ccc1Cl (stereo in doubt) [Compound I-1231] | 500 to 1000 nM
O=C(Nc1cc(NC(=O)c2cc(F)cc(C(F)(F)F)c2)c2c(c1)C(=O)NC2c1cc(F)ccc1Cl)c1cccnc1 (centres unmarked) [Compound I-1356] | ≤ 100 nM
O=C(Nc1cc(C2CCCOC2)cc2c1C(c1cc(F)ccc1Cl)NC2=O)c1cc(F)cc(C(F)(F)F)c1 (centres unmarked) [Compound I-1142] | ≤ 100 nM
O=C1NC(c2ncccc2Cl)c2c(NC(=O)c3csc4ccccc34)cccc21 (centres unmarked) [Compound I-57] | 1000 to 10000 nM
O=C(Nc1cc(Br)cc2c1C(c1cc(F)ccc1Cl)NC2=O)c1cc(F)cc(CC(F)(F)F)c1 (centres unmarked) [Compound I-1582] | 500 to 1000 nM
CN1CCCC[C@H]1C(=O)Nc1cc(-c2ccc3ncnn3c2)cc2c1[C@@H](c1cc(F)ccc1Cl)NC2=O (racemic) [Compound I-1947] | 10000 to 100000 nM
Cc1ccccc1C1NC(=O)c2cc(C3(O)CCC3)cc(NC(=O)c3nsc4ccccc34)c21 (centres unmarked) [Compound I-419] | ≤ 100 nM
CC(C)(C)C(=O)Nc1cc(Br)cc2c1C(c1cc(F)ccc1Cl)NC2=O (centres unmarked) [Compound I-1139] | 1000 to 10000 nM
